Patent US20260109732A1, “LIPID AMINES” (ModernaTX, Inc., priority 2021, published 2026)
Where a name gives a salt, the structure may show the parent alone.

Columns and labels:
HeLa cells [1] = assay: Luciferase Protein Expression Assay in HeLa Cells; assay type: cell-based, Human; conditions: LNPs encapsulating Luciferase mRNA, 25 ng per well, N=4 wells; 5 h serum-free then 24 h; ONE-Glo
How it was run: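 Luminescence output, average RLU across N=4 wells, was measured with ONE-Glo after cell lysis. Before that, HeLa cells were exposed to 25 ng/well luciferase-mRNA nanoparticles (PBS control) for 5 h serum-free, then cultured overnight (24 h) in complete MEM.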

[2] = Encapsulation of mRNA nanoparticles with lipid amines using Ribogreen assay; assay type: physicochemical
How it was run: (§1)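 DLS gave size and PDI, and Ribogreen gave encapsulation, for luciferase- or CFTR-mRNA nanoparticles (N:P 4.93). Particles came from IL1/DSPC/cholesterol/PEG-DMG-2K mixed at pH 4, mRNA-loaded, neutralized with TRIS pH 8.12, and then treated with lipid amine SA50 in pH 7.5 buffer.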

[3] = Diameter and PDI from DLS measurements of mRNA nanoparticles with lipid amines; assay type: physicochemical
How it was run: as §1

HeLa cells [4] = assay: CFTR Protein Expression Assay in HeLa Cells; assay type: cell-based, Human; conditions: LNPs encapsulating CFTR mRNA, N=4 wells; 5 h serum-free then 24 h; immunofluorescence vs PBS control
How it was run: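 Readout is fold-change in per-cell CFTR immunofluorescence intensity (488 nm, confocal imaging) relative to PBS-treated cells, from 4 replicate wells. LNPs encapsulating CFTR mRNA were applied serum-free for 5 h, followed by 24 h in complete medium before PFA fixation.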

[5] = CFTR mRNA nanoparticle with lipid amine
[6] = Luciferase mRNA nanoparticle modified with lipid amine

SMILES	Average Relative Light Units ± Standard Deviation (HeLa cells [1]) [Relative Light Units]	% Encapsulation (Ribogreen) [2, 5] [%]	% Encapsulation (Ribogreen) [2, 6] [%]	Diameter (nm) [3, 5] [nm]	PDI [3, 5]	Diameter (nm) [3, 6] [nm]	PDI [3, 6]	Average fold-change in CFTR signal intensity per cell compared to buffer control ± standard deviation (HeLa cells [4]) [fold-change]
CC(C)CCC[C@@H](C)[C@H]1CC[C@H]2[C@@H]3CC=C4C[C@@H](OC(=O)N(CCCC(C)(C)N)CCC(C)(C)N)CC[C@]4(C)[C@H]3CC[C@]12C [SA157, (3S,8S,9S,10R,13R,14S,17R)-10,13-dimethyl-17-((R)-6-methylheptan-2-yl)-2,3,4,7,8,9,10,11,12,13,14,15,16,17-tetradecahydro-1H-cyclopenta[a]phenanthren-3-yl (3-amino-3-methylbutyl)(4-amino-4-methylpentyl)carbamate dihydrochloride]	24130.4 ± 4741.7	99.8	99.6	73.9	0.16	75	0.13	15.9 ± 1.4
CC(C)CCC[C@@H](C)[C@H]1CC[C@H]2[C@@H]3CC=C4C[C@@H](OC(=O)N(CCC(C)(C)N)CCC(C)(C)N)CC[C@]4(C)[C@H]3CC[C@]12C [SA158, (3S,8S,9S,10R,13R,14S,17R)-10,13-dimethyl-17-((R)-6-methylheptan-2-yl)-2,3,4,7,8,9,10,11,12,13,14,15,16,17-tetradecahydro-1H-cyclopenta[a]phenanthren-3-yl bis(3-amino-3-methylbutyl)carbamate dihydrochloride]	33097.8 ± 7405.1	98.3	99.7	72.4	0.15	79	0.28	20.4 ± 1.3
CC(C)CCC[C@@H](C)[C@H]1CC[C@H]2[C@@H]3CC=C4C[C@@H](OC(=O)CCC(=O)N(CCCCNCCC(C)N)CCC(C)N)CC[C@]4(C)[C@H]3CC[C@]12C (stereo partly drawn) [SA160, (3S,8S,9S,10R,13R,14S,17R)-10,13-dimethyl-17-((R)-6-methylheptan-2-yl)-2,3,4,7,8,9,10,11,12,13,14,15,16,17-tetradecahydro-1H-cyclopenta[a]phenanthren-3-yl 4-((3-aminobutyl)(4-((3-aminobutyl)amino)butyl)amino)-4-oxobutanoate trihydrochloride]	19694.4 ± 6954.5	98.1	99.7	77.4	0.15	75	0.11	18.2 ± 1.4
CC[C@H](CC[C@@H](C)[C@H]1CC[C@H]2[C@@H]3CC=C4C[C@@H](OC(=O)CCC(=O)N(CCCCNCCC(C)(C)N)CCC(C)(C)N)CC[C@]4(C)[C@H]3CC[C@]12C)C(C)C [SA161, (3S,8S,9S,10R,13R,14S,17R)-17-((2R,5R)-5-ethyl-6-methylheptan-2-yl)-10,13-dimethyl-2,3,4,7,8,9,10,11,12,13,14,15,16,17-tetradecahydro-1H-cyclopenta[a]phenanthren-3-yl 4-((3-amino-3-methylbutyl)(4-((3-amino-3-methylbutyl)amino)butyl)amino)-4-oxobutanoate trihydrochloride]	17839.3 ± 7760	99.6	99.6	74.2	0.15	77	0.16	14.1 ± 1.5
CC(C)CCC[C@@H](C)[C@H]1CC[C@H]2[C@@H]3CC=C4C[C@@H](OC(=O)CCC(=O)N(CCCCCCCC(C)N)CCC(C)N)CC[C@]4(C)[C@H]3CC[C@]12C (stereo partly drawn) [SA162, (3S,8S,9S,10R,13R,14S,17R)-10,13-dimethyl-17-((R)-6-methylheptan-2-yl)-2,3,4,7,8,9,10,11,12,13,14,15,16,17-tetradecahydro-1H-cyclopenta[a]phenanthren-3-yl 4-((3-aminobutyl)(8-aminononyl)amino)-4-oxobutanoate dihydrochloride]	34454.6 ± 3101.8	98.6	99.4	75.4	0.16	75	0.15	21.3 ± 0.6
